The values that follow are results of earlier work, collected in patent US12214218B2, “Perfusion modulated tumor dose sculpting with single dose radiotherapy” (MEMORIAL SLOAN KETTERING CANCER CENTER, priority 2019, dated 2025).

Like-named read-outs stand apart in the source and are kept apart here.

What is called half-life is the time in which the quantity being followed falls by half.

As for `Cc1cc(C)c(/C=C2\C(=O)Nc3ccccc32)[nH]1` [Semaxanib/SU5416, Semaxanib], the average half-life (in vivo) is 0.5 to 1 h. Regarding `CNC(=O)c1ccccc1Sc1ccc2c(/C=C/c3ccccn3)n[nH]c2c1` [axitinib], where the note is “in vivo”, the average half-life is listed as 2.5 to 6 h. Take `COc1cc2c(Oc3ccc4[nH]c(C)cc4c3F)ncnc2cc1OCCCN1CCCC1` [cediranib]: the average half-life (plasma half-life for cediranib) is 22 to 27 h. Take anginex: the half-life (in vivo) is 0.833 h.

B1: rhASM: Recombinant ASM manufactured for clinical use; orphan drug status for Type B NPD (protein, UniProt P17405 47-631, looked up)
Sphingomyelin …: LALSDSRVLWAPAEAHPLSPQGHPARLHRIVPRLRDVFGWGNLTCPICKGLFTAINLGLKKEPNVARVGSVAIKLCNLLKIAPPAVCQSIVHLFEDDMVEVWRRSVLSPSEACGLLLGSTCGHWDIFSSWNISLPTVPKPPPKPPSPPAPGAPVSRILFLTDLHWDHDYLEGTDPDCADPLCCRRGSGLPPASRPGAGYWGEYSKCDLPLRTLESLLSGLGPAGPFDMVYWTGDIPAHDVWHQTRQDQLRALTTVTALVRKFLGPVPVYPAVGNHESTPVNSFPPPFIEGNHSSRWLYEAMAKAWEPWLPAEALRTLRIGGFYALSPYPGLRLISLNMNFCSRENFWLLINSTDPAGQLQWLVGELQAAEDRGDKVHIIGHIPPGHCLKSWSWNYYRIVARYENTLAAQFFGHTHVDEFEVFYDEETLSRPLAVAFLAPSATTYIGLNPGYRVYQIDGNYSGSSHVVLDHETYILNLTQANIPGAIPHWQLLYRARETYGLPNTLPTAWHNLVYRMRGDMQLFQTFWFLYHKGHPPSEPCGTPCRLATLCAQLSARADSPALCRHLMPDGSLPEAQSLWPRPLFC
As to B1, the “toxicity at high doses” value with wild type mice is “non-toxic”.
